Data as given in patent US20030181436A1, “Treatment for AIDS, HIV, and other related diseases and compounds for use therewith” (priority 2001, published 2003).
≈ marks a conversion by molar mass, not a printed value. Where two headings read alike, the source gives them in different places.

Experiments:
Assay type in all cases: cell-based
[1] = tested on: HIV; assay: PBMC time of addition assay; settings: addition after 32 h of infection
Source text: FIGS. 18 and 19 show the results of the time of addition assay with the K and Z compound. In time of addition assays the timed addition of compounds after initial infection allows the identification of specific stages of virus replication. This is seen with the positive control compound AZT. AZT is a reverse transcriptase inhibitor. […] Thus it has an antiviral target that is occurring after completion of reverse transcription. […] In general since this time of addition uses multiple rounds of infection in the PBMCs versus a single round in cell lines systems, lower concentrations of compound will often shift the curve to the left. This is seen in FIG. 18.

[2] = tested on: HIV RoJo (a clinical isolate); assay: Chronically infected PBMCs, supernatant reverse transcriptase activity; settings: 7 day treatment
Protocol: Reverse transcriptase activity was measured in cell-free supernatants. Tritiated thymidine triphosphate (NEN) (TTP) was resuspended in distilled H2O at 5 Ci/mL. Poly rA and oligo dT were prepared as a stock solution which was kept at −20° C. The RT reaction buffer was prepared fresh on a daily basis and consists of 125 μL 1.0 M EGTA, 125 μL dH2O, 110 μL 10% SDS, 50 μL 1.0 M Tris (pH 7.4), 50 μL, 1.0 M DTT, and 40 μL 1.0 M MgCl2. These three solutions were mixed together in a ratio of 2 parts TTP, 1 part poly rA:oligo dT, and 1 part reaction buffer. Ten microliters of this reaction mixture was placed in a round bottom microtiter plate and 15 μL of virus containing supernatant was added and mixed. The plate was incubated at 37° C. in a water bath with a solid support to prevent submersion of the plate and incubated for 60 minutes. Following reaction, the reaction volume was spotted onto pieces of DE81 paper, washed 5 times for 5 minutes each in a 5% sodium phosphate buffer, 2 times for 1 minute each in distilled water, 2 times for 1 minute each in 70% ethanol, and then dried. Opti-Fluor O was added to each sample and incorporated radioactivity was quantitated utilizing a Wallac 1450 Microbetaplus liquid scintillation counter.
In these studies PBMCs are infected with HIV RoJo (a clinical isolate) and a dynamic population of infected PBMCs established over a period of 2 to 3 weeks. This population of infected PBMCs was established and maintained by the addition of fresh PBMCs in a 1:1 ratio every 7 days, thus overcoming the lost of PBMCs to normal cell death processes. Thus a population of cells was established that consisted of uninfected cells, short lived infected cells and long lived infected cells. In experiments where AZT was added to prevent re-infection of the population, we typically saw a 50% reduction in infection following a 7 day treatment. This means that 50% of the virus production from the infected […] population was due re-infection. […] Thus there was a population of infected PBMCs present ([…] of the total) which survived for extended periods of time and thus met the definition of being chronically infected.

[3] = tested on: HIV-1 attachment to HeLa CD4 LTR B-gal cells; assay: Inhibition of attachment assay; settings: for IC50: attachment assay
Protocol: (§1) The attachment assay was performed with the HeLa CD4 LTR B-gal cells available from the AIDS Research and Reference Reagent Repository. […] HeLa CD4 LTR B-gal cells express cell surface CD4 and contain an LTR B-galactosidase reporter construct. Upon infection either the Tat protein incorporated into the virion or new Tat produced following virus integration and transcription trans-activate the LTR B-gal reporter, leading to expression of the B-galactosidase enzyme. HeLa CD4 LTR B-gal cells are routinely cultured with the required selection antibiotics and scrended for mycoplasma contamination. Twenty-four h prior to initiation of the assay cells were trypsinized, counted and 1×10^4 cells placed in a 0.2 cm well in media without selection antibiotics. Media was removed and compound media placed on the cells and incubated for 15 to 30 min at 37° C. A known titer of virus was then added to the wells and the incubation continued for 1 h. At the end of the incubation the wells were washed 6 times with media and the culture continued for 48 h. At 48 h the wells were washed one time with PBS and B-galactosidase enzyme expression determined by chemiluminescence per manufacturers instructions (Tropix Gal-screen TM, Tropix, Bedford, Mass.). Compound toxicity was monitored on sister plates using MTS dye reduction. (See Tables 14 through 16 and FIGS. 21 and 22).

[4] = tested on: HeLa CD4 LTR B-gal cells; assay: Attachment assay, toxicity on sister plates by MTS; settings: for TC50: attachment assay
Protocol: as §1, with “reduction.” for “reduction. (See Tables 14 through 16 and FIGS. 21 and 22).”

[5] = tested on: HeLa CD4 LTR β-gal cells; assay: Cytotoxicity for HeLa CD4 LTR β-gal cells
Protocol: At assay termination the assay plates were stained with the soluble tetrazolium-based dye MTS (CellTiter® Reagent, Promega) to determined cell viability and quantify compound toxicity. […] At termination of the assay 20 μL of MTS reagent was added per well. The wells were incubated for 4 h at 37° C., 5% CO2. Adhesive plate scalers were used in place of the lids, the sealed plate was inverted several times to mix the soluble formazan product and the plate was read spectrophotometrically at 490 nm with a 650 nm reference wavelength on a Molecular Devices Vmax plate reader.
This cell line represents one of 3 standard models for performing time of addition assays.

What does the source list for `Cc1cn([C@H]2C[C@H](N=[N+]=[N-])[C@@H](CO)O2)c(=O)[nH]c1=O` [AZT, reference compound]?
effect on virus replication [1]: no significant effect; reduction in infection [2]: 50%

Which “% VC” value ([3]; CONC 0.032) does the source give for `COc1cc(-c2ccc(/N=N/c3ccc4c(S(=O)(=O)O)cc(S(=O)(=O)O)c(N)c4c3O)c(OC)c2)ccc1/N=N/c1ccc2c(S(=O)(=O)O)cc(S(=O)(=O)O)c(N)c2c1O` [Chicago Sky Blue] here?
The value was 90.6%.

And the “RLU (Relative Light Units) MEAN” value ([3]; CONC 0.032)?
The value was 127754.7 RLU.

What about the “% VC” value ([3]; CONC 0.1) of the same molecule?
Its value is 74.5%.

What about the “RLU (Relative Light Units) MEAN” value ([3]; CONC 0.1) of the same molecule?
The value was 105105.3 RLU.

What about the “% VC” value ([3]; CONC 0.32) of the same molecule?
The value was 48.2%.

And the “RLU (Relative Light Units) MEAN” value ([3]; CONC 0.32)?
The value was 67955.7 RLU.

What about the “% VC” value ([3]; CONC 1) of the same molecule?
The value was 10.9%.

What about the “RLU (Relative Light Units) MEAN” value ([3]; CONC 1) of the same molecule?
Its value is 15363.3 RLU.

And the “% VC” value ([3]; CONC 3.2)?
The value was 8.3%.

And the “RLU (Relative Light Units) MEAN” value ([3]; CONC 3.2)?
The value was 11753.3 RLU.

And the “% VC” value ([3]; CONC 10)?
The value was 8.0%.

And the “RLU (Relative Light Units) MEAN” value ([3]; CONC 10)?
The value was 11266.7 RLU.

What about the IC50 ([3]; Human immunodeficiency virus 1, HeLa, read-out: IC50) of the same molecule?
Its IC50 is 0.3 µg/mL (≈ 0.332 µM).

And the IC50 ([3]; listed as CHICAGO SKY BLUE)?
The IC50 was “IC50 (μG/mL) = 0.30 μg/mL”.

And the “% CC” value ([4]; CONC 0.032)?
The value was 93.3%.

And the “TOXICITY VALUES (Cell Titer) MEAN” value ([4]; CONC 0.032)?
Its value is 1.259 O. D.

What about the “% CC” value ([4]; CONC 0.1) of the same molecule?
The value was 80.8%.

And the “TOXICITY VALUES (Cell Titer) MEAN” value ([4]; CONC 0.1)?
The value was 1.090 O. D.

And the “% CC” value ([4]; CONC 0.32)?
Its value is 84.7%.

And the “TOXICITY VALUES (Cell Titer) MEAN” value ([4]; CONC 0.32)?
Its value is 1.142 O. D.

And the “% CC” value ([4]; CONC 1)?
The value was 82.6%.

What about the “TOXICITY VALUES (Cell Titer) MEAN” value ([4]; CONC 1) of the same molecule?
Its value is 1.115 O. D.

And the “% CC” value ([4]; CONC 3.2)?
The value was 83.3%.

And the “TOXICITY VALUES (Cell Titer) MEAN” value ([4]; CONC 3.2)?
Its value is 1.123 O. D.

And the “% CC” value ([4]; CONC 10)?
The value was 73.3%.

What about the “TOXICITY VALUES (Cell Titer) MEAN” value ([4]; CONC 10) of the same molecule?
Its value is 0.989 O. D.

And the TC50 [4]?
Its TC50 is over 10 µg/mL.

And the TC50 ([4]; listed as CHICAGO SKY BLUE)?
Its TC50 is “TC50 (μG/mL) = >.10 μg/mL”.

Which “% CC” value ([5]; dilution 1:50) does the source give for `C[S+](C)[O-]` [DMSO] here?
The value was 111.0%.

And the “TOXICITY VALUES (Cell Titer) MEAN” value ([5]; dilution 1:50)?
Its value is 1.167 O. D.

And the “% CC” value ([5]; dilution 1:1600)?
Its value is 103.2%.

What about the “TOXICITY VALUES (Cell Titer) MEAN” value ([5]; dilution 1:1600) of the same molecule?
The value was 1.085 O. D.

What about the “% CC” value ([5]; dilution 1:5000) of the same molecule?
The value was 105.9%.

What about the “TOXICITY VALUES (Cell Titer) MEAN” value ([5]; dilution 1:5000) of the same molecule?
The value was 1.113 O. D.

And the “% CC” value ([5]; dilution 1:16000)?
The value was 99.1%.

What about the “TOXICITY VALUES (Cell Titer) MEAN” value ([5]; dilution 1:16000) of the same molecule?
The value was 1.042 O. D.

And the “% CC” value ([5]; dilution 1.500)?
The value was 101.0%.

And the “TOXICITY VALUES (Cell Titer) MEAN” value ([5]; dilution 1.500)?
The value was 1.062 O. D.

And the “% CC” value ([5]; dilution 11110)?
The value was 111.0%.

And the “TOXICITY VALUES (Cell Titer) MEAN” value ([5]; dilution 11110)?
Its value is 1.167 O. D.
